Reference: US10808041B2, “Lincosamides universal monoclonal antibody hybridoma cell strain and application thereof” (Jiangnan University, priority 2017, dated 2020)

Test system: lincosamides universal monoclonal antibody secreted by monoclonal cell strain CGMCC No. 14691
Experiment: indirect competitive ELISA with coating antigen Lin-OVA
Format: binding, BALB/c mice
Conditions: lincosamides standard substances competing with coating antigen Lin-OVA
Procedure: The specific ELISA procedure was as follows:
Coating: the coating antigen was subjected to gradient dilution with a 0.05 M pH 9.6 carbonate buffer solution, and incubated at 37° C. for 2 h at 100 μL/well.
Washing: a solution in a plate was decanted, and 200 μL of a PBST solution was injected into each well, placed on a shaker to shake for 3 min, spin-dried, and washed 3 times. The following washing method was the same.
Blocking: After patting dry, 200 μL of a blocking buffer was added to each well, and incubated at a temperature of 37° C. for 2 h. After washing, the product was dried to be ready for use.
Color development: the ELISA plate was taken out, and fully washed, and then 100 μL of a color developing solution (the ratio of TMB to a substrate liquid is 1:5) was added to each well to react at a temperature of 37° C. for 15 min in the dark.
Stopping and determination: the ELISA plate was taken out, 50 μL of a stop solution (2 mol/L sulfuric acid) was added to each well to stop the reaction, and then the absorbance A450 of each well was determined by an ELISA reader.

SMILES	half inhibition concentration (IC50) of the monoclonal antibody [µg/mL]
CCC[C@@H]1C[C@@H](C(=O)N[C@@H]([C@H]2O[C@H](SC)[C@H](O)[C@@H](O)[C@H]2O)[C@@H](C)O)N(C)C1 [lincomycin]	0.004339
CC[C@@H]1CCN[C@H](C(=O)N[C@@H]([C@H]2O[C@H](SC)[C@H](O)[C@@H](O)[C@H]2O)[C@H](C)Cl)C1 [pirlimycin]	0.019314
